Results from patent publication US20070037887A1, “Blockade of mtor to prevent a hormonal adaptive response” (University of Virginia Patent Foundation, priority 2003, published 2007).

Experiments:
Format in all cases: cell-based, human
LTED cells = test: Growth of LTED cells (cell number)
Method: FIG. 3 represents the effect of FTS on the growth of MCF-7, LTED, and MCF-10A cells. Sixty thousand cells were plated into each well of 6-well plates. Two days later, the cells were treated in triplicate for five days with FTS at indicated concentrations. The results (mean±S.E.) are expressed as percentage of the vehicle control.
FIG. 4 represents the effect of FTS on E2 stimulated growth of MCF-7 and LTED cells. Thirty thousand cells were plated into each well of 6-well plates. Two days later, the cells were re-fed with IMEM containing 5% DCC-FBS. After another two days, cells were treated in triplicate with estradiol (10^−10 M) plus various concentrations of FTS for five days. In LTED cells, fulvestrant (10^−9 M) was included in all wells to block the effect of residual estrogen in the culture. The results (mean±S.E.) are expressed as percentage of cell number from the wells containing E2.
The effect of FTS on growth of breast cancer cells was examined in two different cell lines: MCF-7 wild type cells which represent a model for untreated breast cancer and LTED cells as a model of cells adapting to endocrine treatment. Cells were grown in their culture media and treated with FTS for five days. […] The effect of FTS on E2-stimulated growth of MCF-7 and LTED cells was the examined. […]

MCF-7 cells = test: [3H] thymidine incorporation into DNA, MCF-7 cells
Method: FIGS. 5A & 5B represent the effect of FTS on DNA synthesis in MCF-7 (FIG. 5A) and LTED (FIG. 5B) cells. One hundred thousand cells were plated into each well of 24-well plates. Two days later, the cells were re-fed with IMEM containing 5% DCC-FBS. After another two days, cells were treated in quadruplicate with the compounds indicated for 18 hours. [^3H] thymidine (1 μCi/well) was added during the last 2 h of incubation. [^3H] thymidine incorporated into DNA was normalized by protein content.
The inhibitory effect of FTS on cell growth may be the result of inhibition of cellular proliferation, induction of apoptosis, or both. To determine the mechanism by which FTS inhibits cell growth, FTS's effect on DNA synthesis and apoptosis was investigated. […] Estradiol (10^−10 M) increased [^3H] thymidine incorporation by 2.6 fold compared to the control level in MCF-7 cells.

[1] = system: ERK1/2 MAP kinase, Akt, p70 S6 kinase, PHAS-I phosphorylation in MCF-7 cells; test: Western analysis of serum-stimulated kinase phosphorylation, MCF-7 cells; settings: FTS 24 h
Method: FIGS. 7A-7D represent data showing the effect of FTS on serum-stimulated activation of MAP kinase, PI3 kinase, and mTOR. Subconfluent MCF-7 and LTED cells grown in 60 mm dishes were treated with FTS in their culture media for 24 h. Cells were then harvested and cell lysate prepared. Phosphorylation of ERK1/2 MAP kinase (FIG. 7A), Akt at Ser^473 (FIG. 7B), p70 S6 kinase at Thr^389 (FIG. 7C), and PHAS-I at Ser^65 (FIG. 7D) was detected by Western analysis using specific antibodies and quantitated by densitometry scanning.
The levels of phosphorylated ERK1/2 MAPK, Akt (Ser^473), p70S6K (Thr^389) and PHAS-1 (Ser^65) were consistently elevated in LTED cells compared to those in wild type MCF-7 cells as indicated by Western blot analysis using specific antibodies against phosphorylated ERK 1/2 (FIG. 7A), Akt (FIG. 7B), p70S6 kinase (FIG. 7C) and PHAS-1 (FIG. 7D). […] (FIGS. 7C & 7D).

[2] = system: ERK1/2, Akt, p70S6K, PHAS-1 phosphorylation in LTED cells; test: EGF induced activation of MAP kinase, PI3 kinase and mTOR in LTED cells (Western)
From the text: FIG. 8 represents data showing the effect of FTS on EGF induced activation of MAP kinase, PI3 kinase, and mTOR in LTED cells. […] Cells were then harvested and cell lysate prepared. Phosphorylated and total kinases were detected by Western analysis using specific antibodies.
The effects of the specific growth factors, EFG and IGF-1 were also examined. Serum contains multiple growth factors that activate MAP kinase and PI3 kinase either by recruitment and activation of the common mediator Ras (such as EGF) or through a direct mechanism (such as IGF-1). To further explore the site of action of FTS, EGF-induced activation of MAPK and PI3 kinase was first examined. Specific inhibitors for PI3 kinase and mammalian target of rapamycin (mTOR) were included for comparison. […] One-hour treatment was chosen as the time point allowing most efficient comparisons among molecules.

[3] = pretreatment FTS 1 h, LY 294002 or rapamycin 3 h, EGF 1 μg/ml 1 h

SMILES: CC(C)=CCC/C(C)=C/CC/C(C)=C/CSc1ccccc1C(=O)O [FTS, farnesylthiosalicylic acid]
- E2-stimulated growth (LTED cells; E2 10^−10 M in the presence of fulvestrant 10^−9 M): inhibited
- basal growth (LTED cells; culture media, five days): dose-dependently inhibited
- [3H] thymidine incorporated into DNA (MCF-7 cells; FTS 75 μM, 18 hours): significantly reduced
- estradiol-induced increase of [3H] thymidine incorporation (MCF-7 cells; FTS with estradiol 10^−10 M): completely blocked
- fall of phosphorylated ERK1/2 and 4E BP 1 [1]: approximately 50%
- p70 S 6 kinase and phospho-AKT [1]: inconsistent decrements
- growth factor induced Thr229 phosphorylation of p70 S6K ([2]; EGF or IGF-1): very limited, if any, inhibition
- EGF-induced phosphorylation of p70S6K at Thr389 ([2]; FTS even at 50 μM, EGF 1 μg/ml 1 h): completely abolished
- EGF-induced ERK1/2 MAP kinase phosphorylation [2, 3]: did not inhibit
- EGF-induced phosphorylation of Akt at Ser473 [2, 3]: neither FTS nor rapamycin blocked
- PHAS-1 Ser65 phosphorylation ([2]; serum starved 24 h, EGF): dose-dependently inhibited
